In patent US11135186B2, “Regulators of the endoplasmic reticulum proteostasis network” (The Scripps Research Institute, priority 2015, dated 2021):

Tests used:
[1] = tested on: BiP expression in ALMC-2 cells; experiment: BiP qPCR in ALMC-2 cells; type: cell-based, human; conditions: 10 μM, 6 h
Procedure: (§1) Cells were treated as described at 37° C., washed with Dulbecco's phosphate-buffered saline (Gibco), and then RNA was extracted using the RNeasy Mini Kit (Qiagen). qPCR reactions were performed on cDNA prepared from 500 ng of total cellular RNA using the QuantiTect Reverse Transcription Kit (Qiagen). The FastStart Universal SYBR Green Master Mix (Roche), cDNA, and appropriate human primers^4 or mouse primers (BiP; […] (SEQ ID NO: 5) and […] (SEQ ID NO: 6) purchased from Integrated DNA Technologies were used for amplifications (45 cycles of 1 min at 95° C., 10 s at 95° C., 30 sec at 60° C.) in an ABI 7900HT Fast Real Time PCR machine. Primer integrity was assessed by a thermal melt to confirm homogeneity and the absence of primer dimers. Transcripts were normalized to the housekeeping gene Rplp2 and all measurements were performed in triplicate. Data were analyzed using the RQ Manager and DataAssist 2.0 softwares (ABI).

[2] = tested on: HepG2 cells; experiment: HepG2 viability (CellTiter-Glo); type: cell-based
Procedure: HepG2 cells were plated at 5,000 cells/well in a translucent, flat-bottomed 96 well plate, and treated for 48 hr with vehicle, 10 μM Tg or 10 μM ER proteostasis regulator. ALMC-2 or KAS-6/1 cells were plated at 33,000 cells/well in 96-well plates then treated with proteostasis regulators for 16 h as described. Cell metabolic activity was measured using the CellTiter-Glo assay (Promega), which reports on intracellular ATP concentration. CellTiter-Glo reagent was added to cell culture media at a 1:1 ratio and incubated for 2 minutes on an orbital shaker to induce cell lysis. The plate was then incubated at room temperature for 10 minutes to stabilize the luminescent signal and read on a Tecan F200 Pro microplate reader.

[3] = tested on: XBP1-RLuc reporter (IRE1/XBP1s arm of the UPR); experiment: XBP1-RLuc splicing reporter, 1536-well screen in HEK293T-Rex cells; type: cell-based; conditions: % Tg (500 nM) activation, triplicate confirmation screen at 6.8 μM, 18 h
Text: To evaluate the selectivity of our screening hits for ATF6, we employed an alternative luciferase reporter to measure activation of the IRE1/XBP1s arm of the UPR. This reporter contains Renilla luciferase (RLuc) expressed out of frame downstream of the XBP1 splice site, preventing RLuc translation in the absence of stress (FIG. 2b)^36,37. In response to IRE1 activation, the 26-nt XBP1 intron is removed, producing a frame shift that allows for RLuc translation and activity. Robust dose-dependent activation of the XBP1-RLuc reporter upon addition of the ER stressors Tg and Tm was confirmed in HEK293T-Rex cells stably expressing the XBP1-RLuc reporter, producing a Z′ score of 0.75 for Tg.
HEK293T-Rex cells incorporating either the ERSE-FLuc or XBP1s-RLuc reporters were collected by trypsinization and resuspended at a density of 500,000 cells per mL. The assay was started by dispensing 5 μL of cell suspension into each well of white, solid-bottom 1536-well plates using a flying reagent dispenser (FRD) and placed into an online incubator 3 h. Cells were then treated with 34 nL/well of either test compounds to give final concentrations of 6.8 μM, DMSO (Low control, final concentration 0.68%, 0% activation) or […] of Delta-7 thapsigargin (High control, final concentration 500 nM, 100% activation). Plates were incubated for 18 h at 37° C., removed from the incubator and equilibrated to room temperature for 10 min. Luciferase activity was detected by addition of 5 μL of ONE-Glo reagent (Promega) to each well. After a 10 min incubation time, light emission was measured with the ViewLux reader (PerkinElmer). The percent activation of each test compound was calculated as follows: % Activation=100*(Test Compound−Median Low Control)/(Median High Control ˜Median Low Control).

[4] = tested on: BiP expression in HepG2 cells; experiment: BiP qPCR in HepG2 cells; type: cell-based
Procedure: as §1

[5] = tested on: HEK293T-Rex cells; experiment: mRNA-Seq transcriptional profiling and geneset analysis in HEK293T-Rex cells; type: cell-based, human; conditions: for activation of the ATF6 geneset relative to Tg: mRNA-seq geneset analysis; for BiP mRNA-Seq fold change (relative to Vh) / GRP94 mRNA-Seq fold change (relative to Vh) / SEL1L mRNA-Seq fold change (relative to Vh): ATF6-selective gene; for BiP mRNA-Seq fold change (relative to Vh) / GRP94 mRNA-Seq fold change (relative to Vh) / SEL1L mRNA-Seq fold change (relative to Vh) / DNAJB1 mRNA-Seq fold change (relative to Vh) / HSPA1A mRNA-Seq fold change (relative to Vh) / HSPA8 mRNA-Seq fold change (relative to Vh) / ASNS mRNA-Seq fold change (relative to Vh) / DDIT3 (CHOP) mRNA-Seq fold change (relative to Vh) / TrIB3 mRNA-Seq fold change (relative to Vh) / ERdj3 mRNA-Seq fold change (relative to Vh) / HYOU1 mRNA-Seq fold change (relative to Vh) / p58IPK mRNA-Seq fold change (relative to Vh) / DNAJC10 mRNA-Seq fold change (relative to Vh) / HSPA13 mRNA-Seq fold change (relative to Vh) / SEC24D mRNA-Seq fold change (relative to Vh): compounds 10 μM, Tg 1 μM; for DNAJB1 mRNA-Seq fold change (relative to Vh) / HSPA1A mRNA-Seq fold change (relative to Vh) / HSPA8 mRNA-Seq fold change (relative to Vh): HSF1 target gene; for ASNS mRNA-Seq fold change (relative to Vh) / DDIT3 (CHOP) mRNA-Seq fold change (relative to Vh) / TrIB3 mRNA-Seq fold change (relative to Vh): PERK target gene; for ERdj3 mRNA-Seq fold change (relative to Vh) / HYOU1 mRNA-Seq fold change (relative to Vh) / p58IPK mRNA-Seq fold change (relative to Vh): XBP1s- or ATF6-target gene; for DNAJC10 mRNA-Seq fold change (relative to Vh) / HSPA13 mRNA-Seq fold change (relative to Vh) / SEC24D mRNA-Seq fold change (relative to Vh): XBP1s-selective gene
Procedure: HEK293T-Rex and HEK293^DAX cells in 12-well plates were treated for 6 h with vehicle, 1 μM Tg, 10 μM TMP (in HEK293^DAX), or 10 μM 132, 147 or 263 in biological triplicate at 37° C. Cells were harvested, and RNA was extracted using the RNeasy Mini Kit (Qiagen). Total RNA was quantified using NanoDrop (ND-1000). Samples were run on the Illuina HiSeq system.
Single end, 100 bp-long reads from RNA-Seq experiments were aligned to the GRCh37.p13 human genome reference assembly using SeqMan NGen 11.2.1 (DNAStar, Inc.). The assembly data were then imported into ArrayStar with QSeq (DNAStar, Inc.) to quantify the gene expression levels. The sequence counts were normalized to reads per kilobase per million (RPKM) after filtering out non-mRNA sequence features. The statistical significance of the difference between the expression levels of a gene under different conditions was assessed using a Student's t-test with the Benjamini-Hochberg multiple testing correction.
ATF6- and XBP1s-selective target genes were identified from transcriptional profiles of HEK293D^X cells following stress-independent activation of TMP-dependent DHFR-ATF6 and/or tetracycline inducible XBP1s, as previously described^4. PERK-selective target genes were identified from^8. Only ATF6-, XBP1s- or PERK-selective genes induced >1.5 fold in Tg-treated samples were used in this analysis. The log transformed fold-increase of these target genes in HEK293T-Rex cells treated with the respective ER proteostasis regulators were then normalized to the log transformed fold increase of these genes induced by Tg treatment. The plots shown in FIG. 5b-e were prepared as box and whisker plots using Kaleidograph. Differential activation of the ATF6, XBP1s, and PERK genesets was assessed by one-way ANOVA and significance of pairwise comparison confirmed by unpaired t-test. An analogous strategy was employed to prepare the heat map using transcriptional data from the MGE analysis.

| SMILES | expression of the ATF6 target gene BiP in ALMC-2 cells [1] | HepG2 viability ([2]; 10 μM) | HepG2 viability ([2]; 100 μM) | % XBP1-RLuc activation [3] [%] | expression of the ATF6-target gene BiP in HepG2 cells [4] | activation of the ATF6 geneset relative to Tg ([5]; 10 μM) [%] | BiP mRNA-Seq fold change (relative to Vh) ([5]; 6 h) [fold] | GRP94 mRNA-Seq fold change (relative to Vh) ([5]; 6 h) [fold] | SEL1L mRNA-Seq fold change (relative to Vh) ([5]; 6 h) [fold] | DNAJB1 mRNA-Seq fold change (relative to Vh) ([5]; 6 h) [fold] | HSPA1A mRNA-Seq fold change (relative to Vh) ([5]; 6 h) [fold] | HSPA8 mRNA-Seq fold change (relative to Vh) ([5]; 6 h) [fold] | ASNS mRNA-Seq fold change (relative to Vh) ([5]; 6 h) [fold] | DDIT3 (CHOP) mRNA-Seq fold change (relative to Vh) ([5]; 6 h) [fold] | TrIB3 mRNA-Seq fold change (relative to Vh) ([5]; 6 h) [fold] | ERdj3 mRNA-Seq fold change (relative to Vh) ([5]; 6 h) [fold] | HYOU1 mRNA-Seq fold change (relative to Vh) ([5]; 6 h) [fold] | p58IPK mRNA-Seq fold change (relative to Vh) ([5]; 6 h) [fold] | DNAJC10 mRNA-Seq fold change (relative to Vh) ([5]; 6 h) [fold] | HSPA13 mRNA-Seq fold change (relative to Vh) ([5]; 6 h) [fold] | other results |
| --- | --- | --- | --- | --- | --- | --- | --- | --- | --- | --- | --- | --- | --- | --- | --- | --- | --- | --- | --- | --- | --- |
| Cc1ccc(O)c(N/C=C/C(=O)c2ccc(F)cc2)c1 [Compound 132] | induced | do not significantly influence | reduce | 10.3 ± 7.9 | induced | 75 | 9.1 | 3.5 | 4.9 | 3.0 | 9.3 | 1.5 | 2.7 | 10.6 | 5.8 | 2.9 | 3.6 | 3.7 | 1.4 | 2.6 | slope of log2 mRNA fold change with compound versus with Tg ([5]; 10 μM, 6 h, ER proteostasis genes): 1; SEC24D mRNA-Seq fold change (relative to Vh) ([5]; 6 h): 3.1 fold |
| Cc1ccc(O)c(NC(=O)CCc2ccccc2)c1 [Compound 147] | induced | do not significantly influence | reduce | 17.5 ± 1.9 | induced | 45 | 3.3 | 1.8 | 2.2 | 1.6 | 3.2 | 1.3 | 1.0 | 1.7 | 1.0 | 1.7 | 1.8 | 1.8 | 1.1 | 1.2 | SEC24D mRNA-Seq fold change (relative to Vh) ([5]; 6 h): 1.4 fold |
| O=[N+]([O-])c1ccc(N/N=C/c2ccccc2O)cc1 [Compound 263] | does not significantly induce | do not significantly influence | reduce | 2.4 ± 1.0 | induced | 50 | 5.7 | 2.5 | 2.7 | 1.4 | 2.5 | 1.3 | 1.5 | 2.0 | 1.3 | 2.4 | 2.7 | 2.9 | 1.3 | 1.7 | SEC24D mRNA-Seq fold change (relative to Vh) ([5]; 6 h): 2.1 fold |
